From patent US20140357512A1, “HISTONE DEACETYLASE (HDAC) BIOMARKERS IN MULTIPLE MYELOMA” (priority 2013, published 2014)

Tested on: human myeloma cell line MM.1S
Experiment: SILAC acetylated-lysine peptide profiling, HDAC inhibitor vs DMSO (light/heavy ratio)
Assay type: cell-based
Text: An embodiment of the invention comprises utilizing the SILAC method in order to quantitate changes in protein expression between two or more populations of cells. The SILAC method is a technique based on mass spectrometry that detects differences in protein abundance among samples using non-radioactive isotopic labeling. The SILAC method is known in the art, and described in detail in Ong et al., “Stable Isotope Labeling by Amino Acids in Cell Culture, SILAC, as a Simple and Accurate Approach to Expression Proteomics”, Molecular & Cellular Proteomics, vol. 1, pp. 376-386 (2002), which is incorporated herein by reference in its entirety.
Briefly, the SILAC method involves growing two populations of cells in cell culture. The first population of cells is grown in growth media containing normal amino acids (“normal media”). The second population of cells is grown in media lacking a standard essential amino acid (such as lysine), but is then supplemented with a non-radioactive, isotopically labeled form of that essential amino acid (such as lysine labeled with ^13C atoms, rather than normal ^12C atoms), which is called “heavy media”. When the two populations of cells are each growing in the medium, they incorporate the amino acids into all of their proteins. The growth of cells maintained in the heavy media is no different from that in normal media. All peptides containing the heavy amino acids are heavier than their normal counterparts. The cells from each of the two populations of cells are lysed. The lysates from each of the two cell populations are then combined. The combined cell lysates are then analyzed by mass spectrometry. Pairs of chemically identical peptides of different stable isotope composition can be differentiated in a mass spectrometer due to their difference in mass. The ratio of peak intensities in the mass spectrum for such peptide pairs reflects the abundance ratio for the two proteins.
This example describes SILAC studies that were performed to compare the effects of three different HDAC inhibitors (Compound A, Compound B, and tubastatin A) to a control on a human multiple myeloma cell line. The HDAC inhibitors were also compared amongst themselves to determine differences in their effects.
A human myeloma cell line MM.1S was grown using either ^12C (light) or ^13C (heavy) lysine containing culture medium. The “heavy” cells were treated with DMSO as the control, and the “light” cells were treated with a single HDAC inhibitor at 37° C. for 6 hours. The heavy and light cells were lysed, and the lysates were mixed in 1:1 ratio and digested with the protease trypsin. The acetylated lysine containing peptides (due to the action of the HDAC inhibitor) in the digested peptide pool were captured by a non-specific anti-acetylated lysine antibody cocktail (the antibodies identify both light and heavy acetylated peptides), and subjected to mass spectrometry analysis in order to identify thousands of individual peptides.
Thousands of peptides were identified in pairs (^12C and ^13C) due to their known mass differences. The amino acid sequence and quantitative ratio (Light/Heavy) of a given peptide in two differentially treated cell lysates were then determined and annotated with their possible protein (gene) sources.
As stated above, three HDAC inhibitors (Compound A, Compound B, and Tubastatin A) were used. Thus, the SILAC method was performed three times, with a different HDAC inhibitor compared to a control each time. Accordingly, there are three pairs of quantitative data in the table below, i.e., Compound A:DMSO, Compound B:DMSO, and Tubastatin A:DMSO. A cut-off of 1.30 fold of change (increase or decrease) was then used to determine “changed” or “+” in the table, and any peptides with a fold of change less than 1.3 fold were determined to be “unchanged” or “0” in the table. Those peptides that were not identified were marked as “NA” in the table. […]

O=C(CCCCCCNC(=O)c1cnc(N(c2ccccc2)c2ccccc2)nc1)NO [Compound A, 2-(diphenylamino)-N-(7-(hydroxyamino)-7-oxoheptyl)pyrimidine-5-carboxamide]
light to heavy ratio (L/H ratio) of acetylated peptide VVK(ac)QASEGPLK (SEQ ID NO: 597) (Glyceraldehyde-3-phosphate dehydrogenase [263], gene GAPDH, inhibitor:DMSO): 0.45 log 2
light to heavy ratio (L/H ratio) of acetylated peptide AHLQK(ac)LMSDK (SEQ ID NO: 549) (Glycyl-tRNA synthetase [224], gene GARS, inhibitor:DMSO): 0.39 log 2
light to heavy ratio (L/H ratio), log 2 scale, acetylated peptide LLLLGAGESGK(ac)STIVK (SEQ ID NO: 769) (Guanine nucleotide-binding protein G(olf) subunit alpha [55], gene GNAL, drug:DMSO): 0.97
L/H ratio of acetylated peptide AGGK(ac)AGK(ac)DSGK (SEQ ID NO: 15) (H2AFV [5:8], log 2 scale, drug vs DMSO): 1.00
light to heavy ratio (L/H ratio) of acetylated peptide TLAMDVMK(ac)PR (SEQ ID NO: 501) (H(+)/CI(−) exchange transporter 5 [587], gene CLCN5, inhibitor:DMSO): −0.76 log 2
light to heavy ratio (L/H ratio) of acetylated peptide FSPDDK(ac)YSR (SEQ ID NO: 504) (H/ACA ribonucleoprotein complex subunit 3 [40], gene NOP10, inhibitor:DMSO): −0.68 log 2
L/H ratio of acetylated peptide GQQQVFK(ac)GLNDK (SEQ ID NO: 41) (HADHA [406], log 2 scale, drug vs DMSO): 0.00
L/H ratio of acetylated peptide (HGMK(ac)VVLISR (SEQ ID NO: 494), Estradiol 17-beta-dehydrogenase 12 [76], HSD17B12): −1.00 log 2
L/H ratio of acetylated peptide PDPAK(ac)SAPAPK(ac)K (SEQ ID NO: 16) (HIST1H2BO [6:12], log 2 scale, drug vs DMSO): 1.00
light to heavy ratio (L/H ratio) of acetylated peptide SLNLK(ac)HIK (SEQ ID NO: 607) (HLA-B associated transcript 1 [188], gene SNORD84, DDX39B, inhibitor:DMSO): 0.46 log 2
L/H ratio of acetylated peptide K(ac)[…] (SEQ ID NO: 42) (HMGB2 [30], log 2 scale, drug vs DMSO): 0.00
L/H ratio of acetylated peptide RGEEGHDPK(ac)EPEQLR (SEQ ID NO: 43) (HNRNPA3 [29], log 2 scale, drug vs DMSO): 0.00
L/H ratio of acetylated peptide […](ac)WQSLK (SEQ ID NO: 44) (HNRNPM [83], log 2 scale, drug vs DMSO): 0.00
L/H ratio of acetylated peptide AAEVLNK(ac)HSLSGRPLK (SEQ ID NO: 3) (HNRNPM [134], log 2 scale, drug vs DMSO): 0.00
L/H ratio of acetylated peptide VK(ac)VLFVR (SEQ ID NO: 45) (HNRNPR [341], log 2 scale, drug vs DMSO): 0.00
L/H ratio of acetylated peptide […](ac)YSR (SEQ ID NO: 46) (HNRNPU [246], log 2 scale, drug vs DMSO): 0.00
L/H ratio of acetylated peptide TTWVTK(ac)HAAENPGK (SEQ ID NO: 47) (HNRNPU [497], log 2 scale, drug vs DMSO): 0.00
L/H ratio of acetylated peptide NK(ac)EIFLR (SEQ ID NO: 52) (HSP90B1 [97], log 2 scale, drug vs DMSO): 0.00
L/H ratio of acetylated peptide […](ac)IR (SEQ ID NO: 49) (HSP90B1 [114], log 2 scale, drug vs DMSO): 0.00
L/H ratio of acetylated peptide EELVK(ac)NLGTIAK (SEQ ID NO: 48) (HSP90B1 [161], log 2 scale, drug vs DMSO): 0.00
L/H ratio of acetylated peptide ETLQQHK(ac)LLK (SEQ ID NO: 50) (HSP90B1 [455], log 2 scale, drug vs DMSO): 0.00
L/H ratio of acetylated peptide IADDK(ac)YNDTFWK (SEQ ID NO: 51) (HSP90B1 [479], log 2 scale, drug vs DMSO): 0.00
L/H ratio of acetylated peptide […](ac)R (SEQ ID NO: 54) (HSPA5 [96], log 2 scale, drug vs DMSO): 0.00
L/H ratio of acetylated peptide […](ac)R (SEQ ID NO: 53) (HSPA5 [213], log 2 scale, drug vs DMSO): 0.00
L/H ratio of acetylated peptide […](ac)R (SEQ ID NO: 55) (HSPA8 [71], log 2 scale, drug vs DMSO): 0.00
light to heavy ratio (L/H ratio) of acetylated peptide […](ac)R (SEQ ID NO: 267) (Heat shock 70 kDa protein 1A/1B [71], HSPA1B, HSPA1A, drug:DMSO): 0.44 log 2
light to heavy ratio (L/H ratio), log 2 scale, acetylated peptide TEMDWVLK(ac)[…] (SEQ ID NO: 797) (Heterogeneous nuclear ribonucleoprotein F [98], gene HNRNPF, drug:DMSO): 1.00
light to heavy ratio (L/H ratio) of acetylated peptide LLLFK(ac)TFSR (SEQ ID NO: 514) (Heterogeneous nuclear ribonucleoprotein U-like protein 2 [553], gene HNRNPUL2, inhibitor:DMSO): −0.57 log 2
light to heavy ratio (L/H ratio) of acetylated peptide YEK(ac)DIAAYR (SEQ ID NO: 595) (High mobility group protein B2 [157], gene HMGB2, inhibitor:DMSO): 0.45 log 2
light to heavy ratio (L/H ratio), log 2 scale, acetylated peptide AGK(ac)DSGK(ac)AK (SEQ ID NO: 786) (Histone H2A.V [8:12], gene H2AFV, drug:DMSO): 1.00
light to heavy ratio (L/H ratio), log 2 scale, acetylated peptide GSK(ac)K(ac)AITK (SEQ ID NO: 790) (Histone H2B type 1-B [16:17], gene HIST1H2BB, drug:DMSO): 1.00
light to heavy ratio (L/H ratio), log 2 scale, acetylated peptide PEPTK(ac)SAPAPK(ac)K (SEQ ID NO: 791) (Histone H2B type 1-D [6:12], gene HIST1H2BD, drug:DMSO): 1.00
light to heavy ratio (L/H ratio), log 2 scale, acetylated peptide GSK(ac)K(ac)AINK (SEQ ID NO: 792) (Histone H2B type 1-M [16:17], gene HIST1H2BM, drug:DMSO): 1.00
light to heavy ratio (L/H ratio), log 2 scale, acetylated peptide K(ac)AINK(ac)AQK (SEQ ID NO: 793) (Histone H2B type 1-M [17:21], gene HIST1H2BM, drug:DMSO): 1.00
light to heavy ratio (L/H ratio) of acetylated peptide PEPAK(ac)SAPAPK(ac)K (SEQ ID NO: 309) (Histone H2B type 2-E [6:12], HIST2H2BE, drug:DMSO): 1.00 log 2
